Literature values, collected in patent US20230355730A1, “METHODS FOR TREATING AUTOIMMUNE DISEASE USING BIOCOMPATIBLE BIOABSORBABLE NANOSPHERES” (UTI Limited Partnership, priority 2010, published 2023).

Tested on: IGRP206-214-reactive CD8^+ T-cells
Settings: cited from earlier work; for T1D protection: chronic treatment, moderate doses (NRP-A7), high doses (NRP-I4, NRP-V7, IGRP206-214)

**Q.** Which T1D protection does the source give for KYNIANVFL (SEQ ID NO:7) [NRP-I4] here?
**A.** afforded T1D protection

**Q.** For KYNKANVFL (SEQ ID NO:8) [NRP-V7], which T1D protection is on record?
**A.** only afforded marginal protection

**Q.** Which T1D protection does the source give for KYNKANAFL (SEQ ID NO:6) [NRP-A7] here?
**A.** afforded T1D protection

**Q.** What about the “avidity maturation of the IGRP206-214-reactive CD8^+ subset” value (pre-diabetic NOD mice, soluble peptide) of the same sequence?
**A.** blunted avidity maturation

**Q.** For “VYLKTNVFL (SEQ ID NO:4) [IGRP206-214, natural ligand]”, which T1D protection is on record?
**A.** only afforded marginal protection
